Measurements as given in US8846719B2, “Isoxazolo-pyridine derivatives” (Roche Palo Alto LLC, priority 2007, dated 2014).
Where two headings read alike, the source gives them in different places.

Target: human GABA A receptor α5β3γ2 (Homo sapiens (Human), UniProt P18507+P31644)
Assay: [3H]flumazenil competition binding assay, human GABA A α5β3γ2 receptors expressed in HEK293 cells
Procedure, shortened: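 Ki values, each the mean of two runs, derive from displacement of [3H]flumazenil from human α5β3γ2 GABA A receptors transiently expressed in HEK293 membranes. Binding ran 1 h at 4° C in Krebs-tris, pH 7.5, before filter harvest and scintillation counting.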

[1] = human receptor, displacement of [3H]flumazenil (0.5 nM), means of two determinations, read-out: hKi GABAAa5

| Ki [1] | Structure (SMILES) | Ki |
| --- | --- | --- |
| 40.7 nM | Cc1onc(-c2ccccc2)c1COc1ccc(C(=O)N2CCCn3nccc32)cn1 [Example 78, (6,7-Dihydro-5H-pyrazolo[1,5-a]pyrimidin-4-yl)-[6-(5-methyl-3-phenyl-isoxazol-4-ylmethoxy)-pyridin-3-yl]-methanone] | – |
| 68.1 nM | Cc1onc(-c2ccccc2)c1COc1ccc(C(=O)NC2COCc3ccccc32)cn1 (stereo not shown) [Example 79, N-Isochroman-4-yl-6-(5-methyl-3-phenyl-isoxazol-4-ylmethoxy)-nicotinamide] | – |
| 16.8 nM | Cc1onc(-c2ccccc2)c1COc1ccc(C(=O)N2CCC23COC3)cn1 [Example 82, [6-(5-Methyl-3-phenyl-isoxazol-4-ylmethoxy)-pyridin-3-yl]-(6-oxa-1-aza-spiro[3.3]hept-1-yl)-methanone] | – |
| 4.7 nM | Cc1onc(-c2ccccc2)c1COc1ccc(C(=O)OC(C)C)cn1 [Example 83, 6-(5-Methyl-3-phenyl-isoxazol-4-ylmethoxy)-nicotinic acid isopropyl ester] | – |
| 4.5 nM | Cc1onc(-c2ccccc2F)c1COc1ccc(C(=O)NCC(F)(F)F)cn1 [Example 84, 6-[3-(2-Fluoro-phenyl)-5-methyl-isoxazol-4-ylmethoxy]-N-(2,2,2-trifluoro-ethyl)-nicotinamide] | – |
| 17.4 nM | COC(=O)c1ccc(OCc2c(-c3cccc(F)c3)noc2C)nc1 [Example 88, 6-[3-(3-Fluoro-phenyl)-5-methyl-isoxazol-4-ylmethoxy]-nicotinic acid methyl ester] | – |
| 3 nM | Cc1onc(-c2cccc(F)c2)c1COc1ccc(C(=O)NCC(F)(F)F)cn1 [Example 89, 6-[3-(3-Fluoro-phenyl)-5-methyl-isoxazol-4-ylmethoxy]-N-(2,2,2-trifluoro-ethyl)-nicotinamide] | – |
| 3.2 nM | Cc1onc(-c2cccc(F)c2)c1COc1ccc(C(=O)NCC2CC2)cn1 [Example 90, N-Cyclopropylmethyl-6-[3-(3-fluoro-phenyl)-5-methyl-isoxazol-4-ylmethoxy]-nicotinamide] | – |
| 2.3 nM | Cc1onc(-c2cccc(F)c2)c1COc1ccc(C(=O)NC(C)C)cn1 [Example 91, 6-[3-(3-Fluoro-phenyl)-5-methyl-isoxazol-4-ylmethoxy]-N-isopropyl-nicotinamide] | – |
| 41.3 nM | Cc1onc(-c2cccc(F)c2)c1COc1ccc(C(=O)NC2CC2)cn1 [Example 92, N-Cyclopropyl-6-[3-(3-fluoro-phenyl)-5-methyl-isoxazol-4-ylmethoxy]-nicotinamide] | – |
| 1.7 nM | Cc1onc(-c2cccc(F)c2)c1COc1ccc(C(=O)NC2CCOCC2)cn1 [Example 93, 6-[3-(3-Fluoro-phenyl)-5-methyl-isoxazol-4-ylmethoxy]-N-(tetrahydro-pyran-4-yl)-nicotinamide] | – |
| 45.6 nM | Cc1onc(-c2cccc(F)c2)c1COc1ccc(C(=O)N2CCSCC2)cn1 [Example 95, {6-[3-(3-Fluoro-phenyl)-5-methyl-isoxazol-4-ylmethoxy]-pyridin-3-yl}-thiomorpholin-4-yl-methanone] | – |
| 13.4 nM | Cc1onc(-c2cccc(F)c2)c1COc1ccc(C(=O)N2CCS(=O)(=O)CC2)cn1 [Example 96, (1,1-Dioxo-1λ6-thiomorpholin-4-yl)-{6-[3-(3-fluoro-phenyl)-5-methyl-isoxazol-4-ylmethoxy]-pyridin-3-yl}-methanone] | – |
| 27.4 nM | COC(=O)c1ccc(OCc2c(-c3cccc(Cl)c3)noc2C)nc1 [Example 97, 6-[3-(3-Chloro-phenyl)-5-methyl-isoxazol-4-ylmethoxy]-nicotinic acid methyl ester] | – |
| 7.8 nM | Cc1onc(-c2cccc(Cl)c2)c1COc1ccc(C(=O)NCC(F)(F)F)cn1 [Example 98, 6-[3-(3-Chloro-phenyl)-5-methyl-isoxazol-4-ylmethoxy]-N-(2,2,2-trifluoro-ethyl)-nicotinamide] | – |
| 3.9 nM | Cc1onc(-c2cccc(Cl)c2)c1COc1ccc(C(=O)NC2CCOCC2)cn1 [Example 101, 6-[3-(3-Chloro-phenyl)-5-methyl-isoxazol-4-ylmethoxy]-N-(tetrahydro-pyran-4-yl)-nicotinamide] | – |
| 16.2 nM | COC(=O)c1ccc(OCc2c(-c3ccc(F)cc3)noc2C)nc1 [Example 103, 6-[3-(4-Fluoro-phenyl)-5-methyl-isoxazol-4-ylmethoxy]-nicotinic acid methyl ester] | – |
| 39.5 nM | Cc1onc(-c2ccc(F)cc2)c1COc1ccc(C(=O)O)cn1 [Example 104, 6-[3-(4-Fluoro-phenyl)-5-methyl-isoxazol-4-ylmethoxy]-nicotinic acid] | – |
| 1.2 nM | Cc1onc(-c2ccc(F)cc2)c1COc1ccc(C(=O)NCC(F)(F)F)cn1 [Example 105, 6-[3-(4-Fluoro-phenyl)-5-methyl-isoxazol-4-ylmethoxy]-N-(2,2,2-trifluoro-ethyl)-nicotinamide] | – |
| 1.1 nM | Cc1onc(-c2ccc(F)cc2)c1COc1ccc(C(=O)NC2CC2)cn1 [Example 108, N-Cyclopropyl-6-[3-(4-fluoro-phenyl)-5-methyl-isoxazol-4-ylmethoxy]-nicotinamide] | – |
| 0.8 nM | Cc1onc(-c2ccc(F)cc2)c1COc1ccc(C(=O)NC2CCOCC2)cn1 [Example 109, 6-[3-(4-Fluoro-phenyl)-5-methyl-isoxazol-4-ylmethoxy]-N-(tetrahydro-pyran-4-yl)-nicotinamide] | – |
| 13 nM | Cc1onc(-c2ccc(F)cc2)c1COc1ccc(C(=O)N2CCOCC2)cn1 [Example 110, {6-[3-(4-Fluoro-phenyl)-5-methyl-isoxazol-4-ylmethoxy]-pyridin-3-yl}-morpholin-4-yl-methanone] | – |
| 10.4 nM | Cc1onc(-c2ccc(F)cc2)c1COc1ccc(C(=O)N2CCSCC2)cn1 [Example 111, {6-[3-(4-Fluoro-phenyl)-5-methyl-isoxazol-4-ylmethoxy]-pyridin-3-yl}-thiomorpholin-4-yl-methanone] | – |
| – | Cc1onc(-c2ccc(F)cc2)c1COc1ccc(C(=O)N2C[C@H]3C[C@@H](C2)O3)cn1 [Example 114, {6-[3-(4-Fluoro-phenyl)-5-methyl-isoxazol-4-ylmethoxy]-pyridin-3-yl}-(1R,5S)-6-oxa-3-aza-bicyclo [3.1.1]hept-3-yl-methanone] | 42.6 nM |
| 4.5 nM | COC(=O)c1ccc(OCc2c(-c3ccc(Cl)cc3)noc2C)nc1 [Example 115, 6-[3-(4-Chloro-phenyl)-5-methyl-isoxazol-4-ylmethoxy]-nicotinic acid methyl ester] | – |
| 2.1 nM | Cc1onc(-c2ccc(Cl)cc2)c1COc1ccc(C(=O)NCC(F)(F)F)cn1 [Example 117, 6-[3-(4-Chloro-phenyl)-5-methyl-isoxazol-4-ylmethoxy]-N-(2,2,2-trifluoro-ethyl)-nicotinamide] | – |
| 1.3 nM | Cc1onc(-c2ccc(Cl)cc2)c1COc1ccc(C(=O)NCC2CC2)cn1 [Example 118, 6-[3-(4-Chloro-phenyl)-5-methyl-isoxazol-4-ylmethoxy]-N-cyclopropylmethyl-nicotinamide] | – |

| Structure (SMILES) | Ki [1] | Ki |
| --- | --- | --- |
| Cc1onc(-c2ccccc2)c1COc1ccc(C(=O)NCc2cc(C(C)C)no2)cn1 [Example 80, N-(3-Isopropyl-isoxazol-5-ylmethyl)-6-(5-methyl-3-phenyl-isoxazol-4-ylmethoxy)-nicotinamide] | 44.4 nM | – |
| Cc1onc(-c2ccccc2F)c1COc1ccc(C(=O)NCC(F)(F)C(F)(F)F)cn1 [Example 85, 6-[3-(2-Fluoro-phenyl)-5-methyl-isoxazol-4-ylmethoxy]-N-(2,2,3,3,3-pentafluoro-propyl)-nicotinamide] | 9.8 nM | – |
| Cc1onc(-c2ccccc2F)c1COc1ccc(C(=O)NC(C)C)cn1 [Example 86, 6-[3-(2-Fluoro-phenyl)-5-methyl-isoxazol-4-ylmethoxy]-N-isopropyl-nicotinamide] | 3.6 nM | – |
| Cc1onc(-c2ccccc2F)c1COc1ccc(C(=O)NC2CCOCC2)cn1 [Example 87, 6-[3-(2-Fluoro-phenyl)-5-methyl-isoxazol-4-ylmethoxy]-N-(tetrahydro-pyran-4-yl)-nicotinamide] | 4.6 nM | – |
| Cc1onc(-c2cccc(F)c2)c1COc1ccc(C(=O)N2CCOCC2)cn1 [Example 94, {6-[3-(3-Fluoro-phenyl)-5-methyl-isoxazol-4-ylmethoxy]-pyridin-3-yl}-morpholin-4-yl-methanone] | 48.1 nM | – |
| Cc1onc(-c2cccc(Cl)c2)c1COc1ccc(C(=O)NCC2CC2)cn1 [Example 99, 6-[3-(3-Chloro-phenyl)-5-methyl-isoxazol-4-ylmethoxy]-N-cyclopropylmethyl-nicotinamide] | 8.1 nM | – |
| Cc1onc(-c2cccc(Cl)c2)c1COc1ccc(C(=O)NC2CC2)cn1 [Example 100, 6-[3-(3-Chloro-phenyl)-5-methyl-isoxazol-4-ylmethoxy]-N-cyclopropyl-nicotinamide] | 7.6 nM | – |
| Cc1onc(-c2cccc(Cl)c2)c1COc1ccc(C(=O)N2CCS(=O)(=O)CC2)cn1 [Example 102, {6-[3-(3-Chloro-phenyl)-5-methyl-isoxazol-4-ylmethoxy]-pyridin-3-yl}-(1,1-dioxo-1λ6-thiomorpholin-4-yl)-methanone] | 19.5 nM | – |
| Cc1onc(-c2ccc(F)cc2)c1COc1ccc(C(=O)NCC2CC2)cn1 [Example 106, N-Cyclopropylmethyl-6-[3-(4-fluoro-phenyl)-5-methyl-isoxazol-4-ylmethoxy]-nicotinamide] | 1.5 nM | – |
| Cc1onc(-c2ccc(F)cc2)c1COc1ccc(C(=O)NC(C)C)cn1 [Example 107, 6-[3-(4-Fluoro-phenyl)-5-methyl-isoxazol-4-ylmethoxy]-N-isopropyl-nicotinamide] | 0.7 nM | – |
| Cc1onc(-c2ccc(F)cc2)c1COc1ccc(C2(O)COC2)cn1 [Example 113, 3-{6-[3-(4-Fluoro-phenyl)-5-methyl-isoxazol-4-ylmethoxy]-pyridin-3-yl}-oxetan-3-ol] | 20.9 nM | – |
| Cc1onc(-c2ccc(Cl)cc2)c1COc1ccc(C(=O)O)cn1 [Example 116, 6-[3-(4-Chloro-phenyl)-5-methyl-isoxazol-4-ylmethoxy]-nicotinic acid] | 22.3 nM | – |
| Cc1onc(-c2ccc(Cl)cc2)c1COc1ccc(C(=O)NC(C)C)cn1 [Example 119, 6-[3-(4-Chloro-phenyl)-5-methyl-isoxazol-4-ylmethoxy]-N-isopropyl-nicotinamide] | 0.7 nM | – |
